Measurements as given in patent US6486198B1, “Compounds and methods for the treatment of post traumatic stress disorder” (priority 1999, dated 2002).

Key:
PTSD symptoms (PCL-C) = experiment: PTSD Checklist-Civilian Version (PCL-C) self-report scale at baseline and 4 weeks after starting topiramate; format: in vivo, human; conditions: 17 patients
Experimental: Topiramate was added naturalistically to existing pharmacotherapy (see Table 1 for concomitant medications at start of trial), starting at 25 mglday and increasing whenever possible by 25 to 50 mg/day every 3 to 4 days to clinical response. Target symptoms were DSM-IV PTSD criterion B symptoms of nightmares (N =24) and intrusions (intrusive recollections/flashbacks, N=35) involving re-experiencing of traumas. Definitions of improvement, as assessed from patient self-report, included “partial response” as “definite reduction in intensity and frequency of nightmares or intrusions”, and “full response” as “complete cessation of nightmares and intrusions for a sustained period”. Following the seminal observations, in order to systematically identify responsive symptoms, the next 17 patients completed a self-report scale, the PTSD Checklist—Civilian Version (PCL-C)15, at baseline and at 4 weeks after starting topiramate. The patients were instructed to complete the PCL-C for experiences corresponding to traumas consistent with DSM-IV criterion A for PTSD. Paired ttest scores for the PCL-C were calculated with Jandel SigmaStat® v. 2.0.
Response was also assessed in 17 patients who completed the PCL-C prior to topiramate therapy and at Week 4 of treatment: mean total PCL-C scores were 60±10.4 at baseline and 39±10.5 at Week 4 (instrument range: 17 to 85, threshold for active PTSD=[…], paired t-test). Adjusting the baseline score by subtracting by 17 to set the score for no PTSD symptoms to zero, there was a 48% reduction (59.8 to 38.8)/(59.8-17) in total score. Subscale score reductions were similar for criterion B (re-experiencing), criterion C (avoidance), and criterion D (hyperarousal) symptoms: 60%, 49%, and 42%, respectively.

kindled epilepsy = conditions: in vivo; cited from earlier work

CC1(C)O[C@@H]2[C@@H](CO[C@@]3(COS(N)(=O)=O)OC(C)(C)O[C@@H]23)O1 [Topiramate, 2,3:4,5-bis-O-(1-methylethylidene)-β-D-fructopyranose sulfamate]
PCL-C subscale score reduction, criterion B (re-experiencing) (PTSD symptoms (PCL-C); baseline vs Week 4): 60%
PCL-C subscale score reduction, criterion C (avoidance) (PTSD symptoms (PCL-C); baseline vs Week 4): 49%
PCL-C subscale score reduction, criterion D (hyperarousal) (PTSD symptoms (PCL-C); baseline vs Week 4): 42%
Reduction in total PCL-C score (baseline adjusted by subtracting 17) (PTSD symptoms (PCL-C); baseline vs Week 4): 48%
Mean total PCL-C score at Week 4 (PTSD symptoms (PCL-C); baseline 60±10.4, instrument range 17 to 85, threshold for active PTSD=50): 39±10.5
Seizure block in animal model of kindled epilepsy (kindled epilepsy): effectively block seizures
